From patent publication US20170298437A1, “METHODS AND USES RELATED TO RHABDOID TUMORS” (The Hospital For Sick Children, priority 2016, published 2017)
Entries after “also recorded” stand apart in the source; their conditions may differ.

How the values were obtained:
group 1 ATRT cell lines = assay: MTS cell viability assay on group 1 ATRT cell lines; assay type: cell-based, human; conditions: for growth inhibitory effects / sensitivity: epigenetic inhibitors
Method: (§1) ATRT cell line CHLA02 (ATCC, Cat #CRL-3020), CHLA04 (ATCC, Cat #CRL-3036) were cultured according to the manufacturer's protocol. CHLA05 and CHLA06 cells, which were derived from primary ATRTs by Dr. Anat Erdreich-Epstein from the Children's Hospital of Los Angeles, were cultured in DMEM/F12 supplemented with 20 ng/mL FGF, 20 ng/mL EGF, and 1× B27 supplement. SH cells were obtained from Dr. Shih Hwa Choiu at Taipei Veterans General Hospital and was cultured as previously described (Kao et al., 2005). BT12 and BT16, which were kind gifts from Dr. Peter Houghton at Nationalwide Children's Hospital, were cultured in RPMI-1640 supplemented with 10% FBS. ATRT 78C cells was established from a corresponding primary ATRT (T13; diagnosed at The Hospital for Sick Children) and cultured in Neurobasal medium supplemented with 75 ng/mL BSA, 10 ng/mL FGF1, 10 ng/mL EGF, 2 ug/mL Heparin, 1× B27 and 1× N2 supplements. CHLA266 was grown in IMEM media with 10% FBS and 1× ITS. G401 (ATCC, Cat #CRL-1441) was grown in McCoy's 5A media with 10% FBS.
(§2) To assess effects of NOTCH and BMP signaling on ATRT cell phenotypes, cells were treated with N-[N-(3,5-Difluorophenacetyl)-L-alanyl]-S-phenylglycine t-butyl ester (DAPT; EMD Chemicals, Germany, Cat #565770) or Dorsomorphin (DM; Sigma-Aldrich, USA, Cat #P5499) and analyzed using MTS assays for cell viability. […] For epigenomic drug screening experiments, conditions were set up identically with the exception of absorbance readings being taken at 3 and 7 days post-treatment. Cell viability was determined based on mean cell absorbance at 492 nm.

NOTCH signaling = assay: Western blot and qRT-PCR analyses of NOTCH signaling in group 1 ATRT cell lines; assay type: cell-based, human; conditions: group 1 cell lines 78C, CHLA02, CHLA05
Method: Nuclear and whole cell lysates were prepared using cytosol lysis buffer or nuclear buffer F (Sommer et al., 1998) respectively and immunoblotted with antibodies to SMARCB1/BAF47 (BD Biosciences, USA, Cat #612110), cleaved NOTCH1 (Cell Signaling, USA, Cat #2421S), pSMAD1/5 (Cell Signaling, USA, Cat #95165), SMAD1 (Cell Signaling, USA, Cat #9743S) or a-Tubulin (Sigma-Aldrich, USA, Cat #T9026) as per standard methods. Phospho-PDGFRβ P70 was obtained from Santa Cruz Biotechnology (Santa Cruz, Calif. USA, Cat #sc-12909-R). BAF47 immuno-staining of tumor samples was performed by the Hospital for Sick Children Pathology Department (Toronto, ON, Canada) as per standard clinical protocols.
cDNAs were synthesized from high quality RNA using the High Capacity cDNA Reverse Transcription Kit (Applied Biosystem, Cat #4368814) as per the manufacturer's instructions and qRT-PCR analyses were performed using purchased Taqman probes and the TaqMan® Gene Expression Master Mix (Invitrogen) (BAMBI, SOST, BCR [exon2, 8, 16, 18, 21, 23], RGL4, CHCHD10, MMP11, SMARCB1 [exon 2, 5]). A subset of analyses was performed with Platinum SYBR Green qPCR reagent kit (Invitrogen) as per the manufacturer's protocol with in-house designed primers to amplify invariant exons (HES1, HES5). […] Synthesized cDNA were analysed with gene specific probes using the Platinum SYBR green qPCR reagent kit. […]

group 2 ATRT cell lines = assay: MTS cell viability assay on group 2 ATRT cell lines; assay type: cell-based, human; conditions: for changes in growth / sensitivity: group 2 cell lines (SH, CHLA06, BT16, BT12), epigenetic inhibitors
Method: as §1, §2

[1] = tested on: group 1 (CHLA02) ATRT cell line; assay: TUNEL assay in group 1 ATRT cell line; assay type: cell-based, human
Method: TUNEL assays were performed using in situ cell death detection kit, Fluorescein, according to manufacturer's instructions (Roche, West Sussex, UK). Pictures were taken at 20× magnification. Percentage of TUNEL positive population was calculated with respect to DAPI-positive cells, in five random fields per cell cultured slide, and averaged as representative population. Fold-changes were obtained by comparing with untreated control. Cell migration and invasive phenotypes of ATRT cell lines was assessed using a Transwell Boyden chamber assay according to manufacturer's instructions (BD Science). In brief, 3.5×10^3 cells were seeded onto membranes with 8 μm pores in Boyden chambers, and incubated at 37° C. Membranes were removed after 18 hours and examined at 10× magnification under the microscope. To enumerate the number of cells that had invaded and migrated, cell counts from five random fields on the membrane was used to estimate the total number of cells migrated across the transwell membrane.

[2] = cited from earlier work
ATRT cell lines = assay: MTS cell viability screen of epigenetic probes on the whole ATRT cell line panel (4 group 1 and 4 group 2); assay type: cell-based, human; conditions: 4 group 1 and 4 group 2 cell lines, varying doses
From the text: Recent studies have reported promising therapeutic agents targeting a number of epigenetic and signaling pathways in ATRTs (Ginn and Gajjar, 2012), however the relevance of these agents to ATRT sub-types is unknown as these prior studies have examined a very limited number of cell lines. To identify additional ATRT sub-group specific pathways/targets, the effects of 12 small molecule inhibitors/chemical probes targeting epigenetic pathways on growth of 4 group 1 (CHLA266, CHLA04, 02, 05) and 4 group 2 ATRT (SH, CHLA06, BT16 and BT12) cell lines (FIG. 18A) were tested.
as §1, §2

[3] = tested on: G401, a cell line derived from a renal rhabdoid tumor; assay: Growth of G401 renal rhabdoid tumor cell line; assay type: cell-based, human; conditions: data not shown
Method: as §1

| SMILES | growth inhibitory effects / sensitivity (group 1 ATRT cell lines; group 1 ATRT cell lines, MTS) | changes in growth / sensitivity (group 2 ATRT cell lines; varying doses, MTS) | effect on ATRT cell growth across sub-groups (ATRT cell lines) | further results |
| --- | --- | --- | --- | --- |
| C[C@H](NC(=O)Cc1cc(F)cc(F)c1)C(=O)N[C@H](C(=O)OC(C)(C)C)c1ccccc1 [DAPT, N-[N-(3,5-difluorophenacetyl)-L-alanyl]-S-phenylglycine t-butyl ester] | – | – | – | cell line growth (cell viability, MTS) (group 1 ATRT cell lines; group 1 (78C, CHLA05, CHLA02), DAPT or DM, varying doses, days 1-5, relative to DMSO): inhibited group 1 and 2 ATRT cell line growth in a dose dependent manner; also recorded: sensitive; NICD expression (NOTCH signaling; Western blot, increasing doses): dose dependent decrease in NICD expression; NOTCH transcriptional targets, HES1 and HESS (NOTCH signaling; qRT-PCR, four days post-treatment): downregulation; cell line growth (cell viability, MTS) (group 2 ATRT cell lines; group 2A/B (SH, CHLA06, BT16), DAPT or DM, varying doses, days 1-5, relative to DMSO): no significant effects on cell growth; also recorded: largely insensitive; cell death / apoptosis (TUNEL) [1]: increased cell death; also recorded: induced apopotosis |
| Cc1nc(Nc2ncc(C(=O)Nc3c(C)cccc3Cl)s2)cc(N2CCN(CCO)CC2)n1 [Dasatinib] | – | – | – | blood brain permeability [2]: demonstrated blood brain permeability |
| Cc1sc2c(c1C)C(c1ccc(Cl)cc1)=N[C@@H](CC(=O)OC(C)(C)C)c1nnc(C)n1-2 [JQ1, (S)-tent-butyl 2-(4-(4-chlorophenyl)-2,3,9-trimethyl-6H-thieno[3,2-f][1,2,4]triazolo[4,3-a][1,4]diazepin-6-yl)acetate] | growth inhibitory effects were observed only in group 1 ATRT cell lines | 3 of the 4 group 2 cell lines showed no changes in growth | sub-group specific effect | – |
| O=C(/C=C/c1ccc(CN(CCO)CCc2c[nH]c3ccccc23)cc1)NO [LAQ824] | – | – | significantly diminished growth of all cell lines; also recorded: no sub-type specific effects | – |
| Cc1cn(-c2cc(NC(=O)c3ccc(C)c(Nc4nccc(-c5cccnc5)n4)c3)cc(C(F)(F)F)c2)cn1 [Nilotinib] | – | – | – | growth / sensitivity to tyrosine kinase inhibitor (group 1 ATRT cell lines; group 1 ATRT cell lines, MTS, 5 days): resistant; growth / sensitivity to tyrosine kinase inhibitor (group 2 ATRT cell lines; group 2 ATRT cell lines, MTS, 5 days): robustly diminished growth; also recorded: sensitive; growth of G401 [3]: robustly inhibit the growth |
| COc1cc2c(NC3CCN(C(C)C)CC3)nc(C3CCCCC3)nc2cc1OCCCN1CCCC1 [UNC0638] | only group 1 ATRT cell lines were sensitive | 3 of the 4 group 2 cell lines showed no changes in growth and largely insensitive | sub-group specific effect | – |
| CCCc1cc(C)[nH]c(=O)c1CNC(=O)c1cc(-c2ccc(N3CCN(C(C)C)CC3)nc2)cc2c1cnn2C(C)C [UNC1999] | growth inhibitory effects were observed only in group 1 ATRT cell lines | 3 of the 4 group 2 cell lines showed no changes in growth and largely insensitive | sub-group specific effect | – |
